The results in this text go back to PubChem BioAssay AID248 (DTP/NCI, 2004).

This assay relates to L1210 leukemia ip in BDF1 mice, survival T/C. Nature of the assay: NCI In Vivo Anticancer Drug Screen. Data for tumor model L1210 Leukemia (intraperitoneal) in B6D2F1 (BDF1) mice. As to conditions: endpoint: mean survival time, higher = longer survival. In short, it runs like this:
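Transplanted-tumor mice were given test agent; controls received vehicle only. Survival readings from the two groups were divided (treated over control).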

Setting [1] is: dose: 100.0 mg/kg/injection, schedule: Q04DX003 (ip), vehicle: saline.
The mark [2] stands for this setting: dose: 200.0 mg/kg/injection, schedule: Q04DX003 (ip), vehicle: saline.
Setting [3] is: dose: 100.0 mg/kg/injection, schedule: Q01DX001 (ip), vehicle: carboxymethylcellulose (CMC).
The mark [4] stands for this setting: dose: 200.0 mg/kg/injection, schedule: Q01DX001 (ip), vehicle: carboxymethylcellulose (CMC).
[5] abbreviates: dose: 400.0 mg/kg/injection, schedule: Q01DX001 (ip), vehicle: carboxymethylcellulose (CMC).
Where [6] appears, read: dose: 400.0 mg/kg/injection, schedule: Q04DX003 (ip), vehicle: saline.

“And” between values parts separate entries of the source, which are not always exact repeats. Equal values may be shown once. Toxic doses and inconclusive results are not listed.

As to `CCNC1=C(N2CC2)C(=O)C(NCC)=C(N2CC2)C1=O`, the T/C (dose: 0.04 mg/kg/injection, schedule: Q01DX009 (ip), vehicle: saline) was 95 % of control and 102 % of control; the T/C (dose: 0.09 mg/kg/injection, schedule: Q01DX009 (ip), vehicle: saline) is 102 % of control and 111 % of control; the T/C (dose: 0.09 mg/kg/injection, schedule: Q04DX003 (ip), vehicle: saline) was 100 % of control and 122 % of control; the T/C (dose: 0.18 mg/kg/injection, schedule: Q01DX009 (ip), vehicle: saline) was 108 % of control and 120 % of control; the T/C (dose: 0.18 mg/kg/injection, schedule: Q04DX003 (ip), vehicle: saline) is 104 % of control and 113 % of control; the T/C (dose: 0.37 mg/kg/injection, schedule: Q01DX009 (ip), vehicle: saline) was 168 % of control. For the same compound, the T/C runs as follows: (dose: 0.37 mg/kg/injection, schedule: Q04DX003 (ip), vehicle: saline) 113 % of control and 114 % of control; (dose: 0.75 mg/kg/injection, schedule: Q01DX001 (ip), vehicle: saline) 120 % of control; (dose: 0.75 mg/kg/injection, schedule: Q01DX009 (ip), vehicle: saline) 151 % of control; (dose: 0.75 mg/kg/injection, schedule: Q04DX003 (ip), vehicle: saline) 120 % of control and 124 % of control; (dose: 1.5 mg/kg/injection, schedule: Q01DX001 (ip), vehicle: saline) 168 % of control; (dose: 1.5 mg/kg/injection, schedule: Q01DX009 (ip), vehicle: saline) 191 % of control and 212 % of control. Besides, the T/C (dose: 1.5 mg/kg/injection, schedule: Q04DX003 (ip), vehicle: saline) is 157 % of control; the T/C (dose: 3.0 mg/kg/injection, schedule: Q01DX001 (ip), vehicle: saline) was 157 % of control; the T/C (dose: 3.0 mg/kg/injection, schedule: Q01DX009 (ip), vehicle: saline) was 93 % of control and 117 % of control; the T/C (dose: 3.0 mg/kg/injection, schedule: Q04DX003 (ip), vehicle: saline) is 175 % of control; the T/C (dose: 3.12 mg/kg/injection, schedule: Q04DX003 (ip), vehicle: saline) was 150 % of control; the T/C (dose: 6.0 mg/kg/injection, schedule: Q04DX003 (ip), vehicle: saline) is 101 % of control. The T/C (dose: 6.25 mg/kg/injection, schedule: Q04DX003 (ip), vehicle: saline) is 95 % of control.
Take `Cc1cc(=O)[nH]c(NCCCCC(N)C(=O)O)n1` (stereo unspecified): the T/C is 103 % of control (dose: 50.0 mg/kg/injection, schedule: Q04DX003 (ip), vehicle: saline); 100 % of control under setting [1]; 101 % of control under setting [2].
In the case of `CCOC(=O)NC1=C(N2CC2C)C(=O)C(NC(=O)OCC)=C(N2CC2C)C1=O` (stereo unspecified), the T/C (dose: 0.93 mg/kg/injection, schedule: Q01DX009 (ip), vehicle: Klucel (hydroxypropylcellulose) (HPC)) was 94 % of control and 100 % of control; the T/C (dose: 1.87 mg/kg/injection, schedule: Q01DX009 (ip), vehicle: Klucel (hydroxypropylcellulose) (HPC)) was 97 % of control and 107 % of control; the T/C (dose: 3.12 mg/kg/injection, schedule: Q04DX003 (ip), vehicle: Klucel (hydroxypropylcellulose) (HPC)) was 106 % of control; the T/C (dose: 3.75 mg/kg/injection, schedule: Q01DX009 (ip), vehicle: Klucel (hydroxypropylcellulose) (HPC)) is 98 % of control and 100 % of control; the T/C (dose: 6.25 mg/kg/injection, schedule: Q04DX003 (ip), vehicle: Klucel (hydroxypropylcellulose) (HPC)) was 95 % of control; the T/C (dose: 7.5 mg/kg/injection, schedule: Q01DX009 (ip), vehicle: Klucel (hydroxypropylcellulose) (HPC)) is 102 % of control and 91 % of control. Moreover, the T/C is, setting by setting: (dose: 12.5 mg/kg/injection, schedule: Q04DX003 (ip), vehicle: Klucel (hydroxypropylcellulose) (HPC)) 106 % of control; (dose: 15.0 mg/kg/injection, schedule: Q01DX009 (ip), vehicle: Klucel (hydroxypropylcellulose) (HPC)) 91 % of control; (dose: 25.0 mg/kg/injection, schedule: Q04DX003 (ip), vehicle: Klucel (hydroxypropylcellulose) (HPC)) 112 % of control; (dose: 50.0 mg/kg/injection, schedule: Q04DX003 (ip), vehicle: Klucel (hydroxypropylcellulose) (HPC)) 110 % of control.
Regarding `CN(C)S(=O)(=O)c1ccc(NC(=O)OC2CCCC2)cc1`, the T/C is 93 % of control under setting [3], 98 % of control under setting [4] and 98 % of control under setting [5].
Regarding `CCC/C=C/CC1CC2CC(C1C)C2(C)C` (stereo unspecified), the T/C reads like this: (dose: 50.0 mg/kg/injection, schedule: Q01DX009 (ip), vehicle: other) 97 % of control; (dose: 100.0 mg/kg/injection, schedule: Q01DX009 (ip), vehicle: other) 101 % of control; (dose: 200.0 mg/kg/injection, schedule: Q01DX009 (ip), vehicle: other) 90 % of control.
With `O=S1(=O)CC2(N3CCOCC3)CCCCC21` (stereo unspecified), the T/C runs as follows: (dose: 50.0 mg/kg/injection, schedule: Q01DX001 (ip), vehicle: carboxymethylcellulose (CMC)) 98 % of control; under setting [3], 104 % of control; under setting [4], 98 % of control.
Regarding `CNc1ccc(C(=O)O)c(Cl)c1`, the T/C (dose: 75.0 mg/kg/injection, schedule: Q01DX001 (ip), vehicle: saline) is 95 % of control; the T/C (dose: 75.0 mg/kg/injection, schedule: Q04DX003 (ip), vehicle: saline) is 97 % of control; the T/C (dose: 150.0 mg/kg/injection, schedule: Q01DX001 (ip), vehicle: saline) was 98 % of control; the T/C (dose: 150.0 mg/kg/injection, schedule: Q04DX003 (ip), vehicle: saline) is 111 % of control; the T/C (dose: 300.0 mg/kg/injection, schedule: Q01DX001 (ip), vehicle: saline) is 93 % of control; the T/C (dose: 300.0 mg/kg/injection, schedule: Q04DX003 (ip), vehicle: saline) was 103 % of control.
On to `O=C1OC(=C(Br)Br)C2C3C=CC(CC3)C12` (stereo unspecified), for which the T/C under setting [1] is 95 % of control, the T/C under setting [2] was 98 % of control and the T/C under setting [6] is 98 % of control.
As for `Nc1ccc(P(=O)(Nc2cccc(Cl)c2)Nc2cccc(Cl)c2)cc1`, the T/C is, setting by setting: (dose: 100.0 mg/kg/injection, schedule: Q04DX003 (ip), vehicle: acetone) 108 % of control; (dose: 200.0 mg/kg/injection, schedule: Q04DX003 (ip), vehicle: acetone) 92 % of control; (dose: 400.0 mg/kg/injection, schedule: Q04DX003 (ip), vehicle: acetone) 92 % of control.
As for `OCC(O)C(O)C(O)CC(c1ccc(Cl)cc1)c1ccc(Cl)cc1` (stereo unspecified), the T/C by setting is: (dose: 50.0 mg/kg/injection, schedule: Q01DX001 (ip), vehicle: saline) 102 % of control; (dose: 100.0 mg/kg/injection, schedule: Q01DX001 (ip), vehicle: saline) 102 % of control; (dose: 200.0 mg/kg/injection, schedule: Q01DX001 (ip), vehicle: saline) 106 % of control; (dose: 400.0 mg/kg/injection, schedule: Q01DX001 (ip), vehicle: saline) 107 % of control.
Consider `NC(CCl)=NC1CCCC1`, for which the T/C reads like this: (dose: 25.0 mg/kg/injection, schedule: Q04DX002 (ip), vehicle: saline) 109 % of control; (dose: 50.0 mg/kg/injection, schedule: Q04DX002 (ip), vehicle: saline) 102 % of control; (dose: 100.0 mg/kg/injection, schedule: Q04DX002 (ip), vehicle: saline) 121 % of control.
Turning to `N#Cc1cscc1C#N`, the T/C reads like this: (dose: 12.5 mg/kg/injection, schedule: Q01DX009 (ip), vehicle: Klucel (hydroxypropylcellulose) (HPC)) 96 % of control; (dose: 25.0 mg/kg/injection, schedule: Q01DX009 (ip), vehicle: Klucel (hydroxypropylcellulose) (HPC)) 92 % of control; (dose: 50.0 mg/kg/injection, schedule: Q01DX009 (ip), vehicle: Klucel (hydroxypropylcellulose) (HPC)) 97 % of control; (dose: 100.0 mg/kg/injection, schedule: Q01DX009 (ip), vehicle: Klucel (hydroxypropylcellulose) (HPC)) 88 % of control; (dose: 100.0 mg/kg/injection, schedule: Q04DX003 (ip), vehicle: Klucel (hydroxypropylcellulose) (HPC)) 111 % of control; (dose: 200.0 mg/kg/injection, schedule: Q04DX003 (ip), vehicle: Klucel (hydroxypropylcellulose) (HPC)) 100 % of control. For the same compound, the T/C (dose: 400.0 mg/kg/injection, schedule: Q04DX003 (ip), vehicle: Klucel (hydroxypropylcellulose) (HPC)) was 104 % of control.
With `O=C(Cc1ccc(Cl)cc1)N/N=C/c1ccc([N+](=O)[O-])s1`, the T/C under setting [1] was 93 % of control, the T/C under setting [2] is 93 % of control and the T/C under setting [6] was 90 % of control.
For the compound `CC12CCC(=O)OC1(C)OC(=O)CC2` (stereo unspecified), the T/C is, setting by setting: (dose: 100.0 mg/kg/injection, schedule: Q01DX009 (ip), vehicle: saline) 94 % of control; (dose: 200.0 mg/kg/injection, schedule: Q01DX009 (ip), vehicle: saline) 100 % of control; (dose: 400.0 mg/kg/injection, schedule: Q01DX009 (ip), vehicle: saline) 95 % of control.
Turning to `Nc1cc2c(cc1[N+](=O)[O-])-c1ccccc1/C2=N\O`, the T/C runs as follows: under setting [3], 91 % of control; under setting [4], 100 % of control; under setting [5], 88 % of control.
